Measured values from ChEMBL document CHEMBL1137771, “Non-nucleoside inhibitors of HCV polymerase NS5B. Part 2: Synthesis and structure-activity relationships of benzothiazine-substituted quinolinediones” (Bioorg Med Chem Lett, 2009).
Converted amounts (≈) assume the structure as drawn.

Key:
[1] = Cmax in female rat at 10 mg/kg, po after 7 days; format: ADME, organism-based; design: dose 10 mg/kg, route oral; conditions: in vivo
Hepatitis C virus [2] = assay: Inhibition of HCV genotype 1b isolate con1 NS5B polymerase assessed as incorporation of radiolabeled nucleotide into RNA product; design: species or system Hepacivirus hominis
Caco-2 = assay: Efflux ratio of permeability from […] side in human Caco-2 cells after 21 days; format: ADME, cell-based; conditions: caco-2, 504 h
[3] = Cmax in female rat at 500 mg/kg, po after 7 days; format: ADME, organism-based; design: dose 500 mg/kg, route oral; conditions: in vivo
[4] = AUC in male rat at 10 mg/kg, po after 7 days; format: ADME, organism-based; design: dose 10 mg/kg, route oral; conditions: plasma
[5] = Cmax in female dog at 2 mg/kg administered intraduodenally as cannula dose; format: ADME, organism-based, Canis lupus familiaris; design: dose 2 mg/kg, route intraduodenal; conditions: in vivo
[6] = Ratio of drug level from liver to plasma in po dosed rat after 24 hrs; format: ADME, organism-based
[7] = Cmax in dog at 1 mg/kg, po; format: ADME, organism-based, Canis lupus familiaris; design: dose 1 mg/kg, route oral; conditions: in vivo
[8] = Cmin (24 hrs) in female rat at 500 mg/kg, po after 1 day; format: ADME, organism-based; design: dose 500 mg/kg, route oral; conditions: in vivo, read-out: Cmin
[9] = Cmax in male rat at 500 mg/kg, po after 1 day; format: ADME, organism-based; design: dose 500 mg/kg, route oral; conditions: in vivo
[10] = AUC (0 to 24 hrs) in male rat at 10 mg/kg, po after 1 day; format: ADME, organism-based; design: time < 24 hr, dose 10 mg/kg, route oral; conditions: plasma
[11] = Cmax in rat at 2 mg/kg, iv; format: ADME, organism-based; design: dose 2 mg/kg, route intravenous; conditions: in vivo
[12] = AUC in female rat at 500 mg/kg, po after 7 days; format: ADME, organism-based; design: dose 500 mg/kg, route oral; conditions: plasma
[13] = AUC (0 to 24 hrs) in female rat at 10 mg/kg, po after 1 day; format: ADME, organism-based; design: time < 24 hr, dose 10 mg/kg, route oral; conditions: plasma
[14] = Clearance in dog at 1 mg/kg, iv; format: ADME, organism-based, Canis lupus familiaris; design: dose 1 mg/kg, route intravenous; conditions: in vivo
[15] = Cmax in female rat at 500 mg/kg, po after 1 day; format: ADME, organism-based; design: dose 500 mg/kg, route oral; conditions: in vivo
[16] = Cmax in male rat at 10 mg/kg, po after 1 day; format: ADME, organism-based; design: dose 10 mg/kg, route oral; conditions: in vivo
Hepatocyte = assay: Metabolic stability in rat hepatocytes assessed per 10^6 cells; format: ADME, cell-based
[17] = Drug concentration in rat liver at 5 mg/kg, po after 6 hrs; format: ADME, organism-based; design: dose 5 mg/kg, route oral; conditions: read-out: Drug uptake
[18] = Half life in rat at 2 mg/kg, iv; format: ADME, organism-based; design: dose 2 mg/kg, route intravenous; conditions: in vivo
[19] = Cmin (24 hrs) in male rat at 500 mg/kg, po after 1 day; format: ADME, organism-based; design: dose 500 mg/kg, route oral; conditions: in vivo, read-out: Cmin
[20] = Half life in dog at 1 mg/kg, iv; format: ADME, organism-based, Canis lupus familiaris; design: dose 1 mg/kg, route intravenous; conditions: in vivo
[21] = Cmax in female dog at 2 mg/kg, po dosed as normal particles; format: ADME, organism-based, Canis lupus familiaris; design: dose 2 mg/kg, route oral; conditions: in vivo
serum albumin = serum albumin (Homo sapiens, UniProt P02768); assay: Binding affinity to human serum albumin; format: ADME; conditions: read-out: PB (converted)
[22] = Cmax in male rat at 500 mg/kg, po after 7 days; format: ADME, organism-based; design: dose 500 mg/kg, route oral; conditions: in vivo
[23] = Toxicity in rat assessed as adverse effects after 7 days; format: organism-based; conditions: in vivo
[24] = AUC in dog at 1 mg/kg, iv; format: ADME, organism-based, Canis lupus familiaris; design: dose 1 mg/kg, route intravenous; conditions: plasma
[25] = Metabolic stability in dog liver microsomes; format: ADME, Canis lupus familiaris, Microsome; conditions: read-out: Stability
[26] = Cmax in female rat at 100 mg/kg, po after 7 days; format: ADME, organism-based; design: dose 100 mg/kg, route oral; conditions: in vivo
[27] = Cmin (24 hrs) in male rat at 100 mg/kg, po after 1 day; format: ADME, organism-based; design: dose 100 mg/kg, route oral; conditions: in vivo, read-out: Cmin
[28] = Cmax in rat at 5 mg/kg, po; format: ADME, organism-based; design: dose 5 mg/kg, route oral; conditions: in vivo
[29] = Cmax in female dog at 2 mg/kg, po dosed as nanosized particles; format: ADME, organism-based, Canis lupus familiaris; design: dose 2 mg/kg, route oral; conditions: in vivo
[30] = Cmax in male rat at 100 mg/kg, po after 1 day; format: ADME, organism-based; design: dose 100 mg/kg, route oral; conditions: in vivo
[31] = Cmax in dog at 1 mg/kg, iv; format: ADME, organism-based, Canis lupus familiaris; design: dose 1 mg/kg, route intravenous; conditions: in vivo
[32] = Cmax in male rat at 100 mg/kg, po after 7 days; format: ADME, organism-based; design: dose 100 mg/kg, route oral; conditions: in vivo
[33] = AUC in female rat at 100 mg/kg, po after 7 days; format: ADME, organism-based; design: dose 100 mg/kg, route oral; conditions: plasma
[34] = Drug concentration in rat liver at 5 mg/kg, po after 2 hrs; format: ADME, organism-based; design: dose 5 mg/kg, route oral; conditions: read-out: Drug uptake
[35] = Half life in dog at 1 mg/kg, po; format: ADME, organism-based, Canis lupus familiaris; design: dose 1 mg/kg, route oral; conditions: in vivo
Hepatitis C virus [36] = assay: Antiviral activity against HCV genotype 1b isolate con1 infected in human 2209-23 cells assessed as inhibition of [3H]thymidine incorporation into DNA by scintillation proximity assay in presence of 5% fetal bovine serum; format: functional, organism-based, Hepacivirus hominis; conditions: isolate Con1, 2209-23
[37] = AUC (0 to 24 hrs) in female rat at 100 mg/kg, po after 1 day; format: ADME, organism-based; design: time < 24 hr, dose 100 mg/kg, route oral; conditions: plasma
[38] = Cmax in female rat at 100 mg/kg, po after 1 day; format: ADME, organism-based; design: dose 100 mg/kg, route oral; conditions: in vivo
[39] = Cmax in male rat at 10 mg/kg, po after 7 days; format: ADME, organism-based; design: dose 10 mg/kg, route oral; conditions: in vivo
[40] = Cmin (24 hrs) in female rat at 100 mg/kg, po after 1 day; format: ADME, organism-based; design: dose 100 mg/kg, route oral; conditions: in vivo, read-out: Cmin
[41] = AUC in male rat at 100 mg/kg, po after 7 days; format: ADME, organism-based; design: dose 100 mg/kg, route oral; conditions: plasma
[42] = AUC in rat at 2 mg/kg, iv; format: ADME, organism-based; design: dose 2 mg/kg, route intravenous; conditions: plasma
[43] = Solubility of the compound; format: physicochemical
[44] = AUC in dog at 1 mg/kg, po; format: ADME, organism-based, Canis lupus familiaris; design: dose 1 mg/kg, route oral; conditions: plasma
[45] = AUC (0 to 24 hrs) in male rat at 500 mg/kg, po after 1 day; format: ADME, organism-based; design: time < 24 hr, dose 500 mg/kg, route oral; conditions: plasma
[46] = AUC in female rat at 10 mg/kg, po after 7 days; format: ADME, organism-based; design: dose 10 mg/kg, route oral; conditions: plasma
[47] = AUC (0 to 24 hrs) in male rat at 100 mg/kg, po after 1 day; format: ADME, organism-based; design: time < 24 hr, dose 100 mg/kg, route oral; conditions: plasma
Hepatitis C virus [48] = assay: Ratio of EC50 for HCV genotype 1b isolate con1 in presence of human serum albumin to EC50 for HCV genotype 1b isolate con1 in presence of fetal bovine serum; format: functional, Hepacivirus hominis
Hepatitis C virus [49] = assay: Antiviral activity against HCV genotype 1b isolate con1 infected in human 2209-23 cells assessed as inhibition of [3H]thymidine incorporation into DNA by scintillation proximity assay in presence of 40% human serum albumin; format: functional, organism-based, Hepacivirus hominis; conditions: isolate Con1, 2209-23
[50] = Cytotoxicity against human 2209-23 cells by WST1 assay; format: cell-based
[51] = AUC in male rat at 500 mg/kg, po after 7 days; format: ADME, organism-based; design: dose 500 mg/kg, route oral; conditions: plasma
[52] = Cmax in female rat at 10 mg/kg, po after 1 day; format: ADME, organism-based; design: dose 10 mg/kg, route oral; conditions: in vivo
[53] = Metabolic stability in rat liver microsomes; format: ADME, Microsome; conditions: read-out: Stability
[54] = Clearance in rat at 2 mg/kg, iv; format: ADME, organism-based; design: dose 2 mg/kg, route intravenous; conditions: in vivo
[55] = AUC (0 to 24 hrs) in female rat at 500 mg/kg, po after 1 day; format: ADME, organism-based; design: time < 24 hr, dose 500 mg/kg, route oral; conditions: plasma

Sequence of serum albumin (P02768 whole entry): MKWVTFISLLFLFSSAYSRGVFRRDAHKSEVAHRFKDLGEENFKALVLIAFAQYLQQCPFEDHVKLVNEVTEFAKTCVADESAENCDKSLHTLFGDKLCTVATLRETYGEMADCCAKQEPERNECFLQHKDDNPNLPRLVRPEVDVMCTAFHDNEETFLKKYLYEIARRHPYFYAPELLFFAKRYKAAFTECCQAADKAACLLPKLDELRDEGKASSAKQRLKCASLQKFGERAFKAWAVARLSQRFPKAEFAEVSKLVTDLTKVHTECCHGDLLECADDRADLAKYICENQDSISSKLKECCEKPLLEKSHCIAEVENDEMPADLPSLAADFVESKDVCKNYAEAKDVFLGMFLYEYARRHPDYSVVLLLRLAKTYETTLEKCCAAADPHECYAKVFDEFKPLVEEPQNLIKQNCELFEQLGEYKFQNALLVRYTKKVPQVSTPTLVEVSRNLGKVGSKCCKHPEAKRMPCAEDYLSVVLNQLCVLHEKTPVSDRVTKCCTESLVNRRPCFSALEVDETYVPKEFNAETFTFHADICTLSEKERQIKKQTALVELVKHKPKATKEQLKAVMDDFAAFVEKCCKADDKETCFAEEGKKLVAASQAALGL

Cc1cc(Cn2c(=O)c(C3=CS(=O)(=O)c4cc(NS(C)(=O)=O)ccc4N3)c(O)c3cc(F)ccc32)ccc1F
Cmax [1]: 2.8 ng/mL | IC50 (Hepatitis C virus [2]): 13 nM | Ratio (Caco-2): 3.78 | Cmax [3]: 89.3 ng/mL | AUC at 168 h [4]: 34.4 ng·h/mL | Cmax [5]: < 15 ng/mL | Kp at 24 h [6]: 10 | Cmax [7]: 10.6 ng/mL | concentration at 24 h [8]: 1.3 ng/mL | Cmax [9]: 93.2 ng/mL | AUC(0-t) at 24 h [10]: 25.4 ng·h/mL | Cmax [11]: 130 ng/mL | AUC at 168 h [12]: 1470 ng·h/mL | AUC(0-t) at 24 h [13]: 25.6 ng·h/mL | clearance [14]: 19 mL/min/kg | Cmax [15]: 48.2 ng/mL | Cmax [16]: 2.06 ng/mL | Stability (Hepatocyte): 1.6 µL/min | concentration at 6 h [17]: 22 ng/g | half-life [18]: 1.1 h | concentration at 24 h [19]: 11.3 ng/mL | half-life [20]: 1.6 h | Cmax [21]: < 15 ng/mL | fraction unbound (serum albumin): 0.002 | Cmax [22]: 152 ng/mL | NOAEL at 168 h [23]: > 500 mg/kg/day | AUC [24]: 954 ng·h/mL | microsomal CLint [25]: 24 µL/min/mg | Cmax [26]: 15.8 ng/mL | concentration at 24 h [27]: 2.8 ng/mL | Cmax [28]: 2 ng/mL | Cmax [29]: < 15 ng/mL | Cmax [30]: 20.4 ng/mL | Cmax [31]: 4350 ng/mL | Cmax [32]: 21.1 ng/mL | AUC at 168 h [33]: 299 ng·h/mL | concentration at 2 h [34]: 151 ng/g | half-life [35]: 1.2 h | EC50 (Hepatitis C virus [36]): 23 nM | AUC(0-t) at 24 h [37]: 116 ng·h/mL | Cmax [38]: 13 ng/mL | Cmax [39]: 2.76 ng/mL | concentration at 24 h [40]: 2.1 ng/mL | AUC at 168 h [41]: 322 ng·h/mL | AUC [42]: 158 ng·h/mL | solubility [43]: 6.7 µg/mL (≈ 11.7 µM) | AUC [44]: 34.8 ng·h/mL | AUC(0-t) at 24 h [45]: 821 ng·h/mL | AUC at 168 h [46]: 21.2 ng·h/mL | AUC(0-t) at 24 h [47]: 223 ng·h/mL | fold change (FC) (Hepatitis C virus [48]): 9.2 | EC50 (Hepatitis C virus [49]): 88 nM | CC50 [50]: > 50000 nM | AUC at 168 h [51]: 1910 ng·h/mL | Cmax [52]: 3.26 ng/mL | microsomal CLint [53]: 126 µL/min/mg | clearance [54]: 186 mL/min/kg | AUC(0-t) at 24 h [55]: 701 ng·h/mL
